According to ChEMBL document CHEMBL1201862, “PubChem BioAssay data set” (2004):
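Compound exposure: 48 hours, 5 concentrations, 96-well plates. GI50 is the concentration that inhibits growth by half.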 Calls of active or inactive are those of the source. Rule as the data show it: active = GI50 up to about 1.1 µM and inactive = higher.

What was measured:
Test in all cases: NCI tumour cell line growth inhibition, 48 h
[1] = system: MOLT-4
[2] = system: OVCAR-3
[3] = system: OVCAR-4
[4] = system: HCT-15
[5] = system: HOP-62
[6] = system: HT-29
[7] = system: RXF 393
[8] = system: MDA-MB-231
[9] = system: M14
[10] = system: SK-MEL-28
[11] = system: SN12C
[12] = system: KM12
[13] = system: NCI-H460
[14] = system: UACC-257
[15] = system: BT-549
[16] = system: NCI-H23
[17] = system: UO-31
[18] = system: SK-OV-3
[19] = system: SF-539
[20] = system: MDA-N

| SMILES | GI50 [1] | GI50 [2] | GI50 [3] | GI50 [4] [µM] | GI50 [5] | GI50 [6] | GI50 [7] | GI50 [8] | GI50 [9] | GI50 [10] | GI50 [11] | GI50 [12] | GI50 [13] | GI50 [14] | GI50 [15] | GI50 [16] | GI50 [17] | GI50 [18] | GI50 [19] | GI50 [20] |
| --- | --- | --- | --- | --- | --- | --- | --- | --- | --- | --- | --- | --- | --- | --- | --- | --- | --- | --- | --- | --- |
| NNc1nncn1N | > 62.4 µM (inactive) | > 49.7 µM (inactive) | 38.1 µM (inactive) | > 100 | > 100 µM (inactive) | > 100 µM (inactive) | > 100 µM (inactive) | > 100 µM (inactive) | > 100 µM (inactive) | > 100 µM (inactive) | > 73.1 µM (inactive) | > 100 µM (inactive) | > 100 µM (inactive) | > 100 µM (inactive) | > 100 µM (inactive) | > 51.2 µM (inactive) | 84.1 µM (inactive) | > 100 µM (inactive) | > 53.8 µM (inactive) | – |
| O=C1NN(Cc2ccccc2)C(=O)N2CCC[C@@H]12 | > 100 µM (inactive) | > 100 µM (inactive) | > 100 µM (inactive) | > 100 | > 100 µM (inactive) | > 100 µM (inactive) | > 100 µM (inactive) | > 100 µM (inactive) | > 100 µM (inactive) | > 100 µM (inactive) | > 100 µM (inactive) | > 100 µM (inactive) | > 100 µM (inactive) | > 100 µM (inactive) | – | > 100 µM (inactive) | – | > 100 µM (inactive) | > 100 µM (inactive) | > 100 µM (inactive) |
| O=[N+]([O-])c1ccc(/C=C(/c2ccc([N+](=O)[O-])o2)S(=O)(=O)c2ccccc2)o1 | – | 6.14 µM (inactive) | 4.22 µM (inactive) | 11.6 | 17.8 µM (inactive) | 4.49 µM (inactive) | 25.1 µM (inactive) | 3.19 µM (inactive) | 11.1 µM (inactive) | 15.6 µM (inactive) | – | 17.7 µM (inactive) | 21.2 µM (inactive) | 1.84 µM (inactive) | 19.9 µM (inactive) | 19.7 µM (inactive) | 4.34 µM (inactive) | 29.4 µM (inactive) | 18.1 µM (inactive) | – |
| N#CC(C#N)=C/C=C(\Sc1c(Cl)c(Cl)nc(Cl)c1Cl)c1ccc(Cl)cc1 | 4.56 µM (inactive) | 11.6 µM (inactive) | 29.9 µM (inactive) | 12.9 | 29.2 µM (inactive) | 18 µM (inactive) | 18.5 µM (inactive) | 21.6 µM (inactive) | 19.5 µM (inactive) | 19.2 µM (inactive) | 20.8 µM (inactive) | 19.1 µM (inactive) | 26.4 µM (inactive) | 14.8 µM (inactive) | – | 16.2 µM (inactive) | 29.8 µM (inactive) | 24.4 µM (inactive) | 19.4 µM (inactive) | – |
| NC1CC2C3CCC2C1C3=O (centres undefined) | > 100 µM (inactive) | > 100 µM (inactive) | > 100 µM (inactive) | > 100 | > 100 µM (inactive) | > 100 µM (inactive) | > 100 µM (inactive) | > 100 µM (inactive) | > 100 µM (inactive) | > 100 µM (inactive) | > 100 µM (inactive) | > 100 µM (inactive) | > 100 µM (inactive) | > 100 µM (inactive) | – | > 100 µM (inactive) | > 100 µM (inactive) | > 100 µM (inactive) | > 100 µM (inactive) | > 100 µM (inactive) |
| C[C@@H](CC(O)C1OC1(C)C)[C@@H]1CC[C@]2(C)C3=CCC4C(C)(C)C(O)CC[C@]4(C)C3CCC12C (some centres undefined) | 16 µM (inactive) | 34.7 µM (inactive) | 20.8 µM (inactive) | 33.1 | 42.8 µM (inactive) | 11.4 µM (inactive) | 16.7 µM (inactive) | – | 13.9 µM (inactive) | 18.2 µM (inactive) | 42.2 µM (inactive) | 22.9 µM (inactive) | 17.3 µM (inactive) | 16.3 µM (inactive) | – | 19.1 µM (inactive) | 18.6 µM (inactive) | 19.8 µM (inactive) | 17.9 µM (inactive) | – |
| COCN1C(=O)[C@@H]2CCCN2C(=O)c2ccc([N+](=O)[O-])cc21 | > 100 µM (inactive) | > 100 µM (inactive) | > 100 µM (inactive) | > 100 | > 100 µM (inactive) | > 100 µM (inactive) | > 100 µM (inactive) | > 100 µM (inactive) | > 100 µM (inactive) | > 100 µM (inactive) | > 100 µM (inactive) | > 100 µM (inactive) | > 100 µM (inactive) | > 100 µM (inactive) | > 100 µM (inactive) | > 100 µM (inactive) | > 100 µM (inactive) | > 100 µM (inactive) | > 100 µM (inactive) | – |
| CC(=O)O[C@H]1[C@H](O[C@H]2CC[C@]34C[C@]35CC[C@]3(C)[C@@H]([C@@]6(C)CC[C@@H](C(C)(C)O)O6)[C@@H](O)C[C@@]3(C)[C@@H]5C[C@H](O[C@@H]3O[C@H](CO)[C@@H](O)[C@H](O)[C@H]3O)[C@H]4C2(C)C)OC[C@@H](O)[C@@H]1O | > 100 µM (inactive) | > 100 µM (inactive) | > 100 µM (inactive) | 42.2 | > 100 µM (inactive) | 85.5 µM (inactive) | > 100 µM (inactive) | – | 54.6 µM (inactive) | > 100 µM (inactive) | > 100 µM (inactive) | > 100 µM (inactive) | 71 µM (inactive) | > 100 µM (inactive) | – | > 100 µM (inactive) | > 100 µM (inactive) | > 100 µM (inactive) | 40.4 µM (inactive) | – |
| O=C(c1ccccc1)c1nc2ccc(Cl)cc2cc1C(Br)Br | 0.678 µM (active) | 0.326 µM (active) | 0.407 µM (active) | 0.31 | 0.641 µM (active) | 0.197 µM (active) | 0.216 µM (active) | 0.0685 µM (active) | 1.72 µM (inactive) | 0.261 µM (active) | 0.252 µM (active) | 0.34 µM (active) | 0.281 µM (active) | 0.525 µM (active) | 0.144 µM (active) | 0.304 µM (active) | 0.385 µM (active) | 0.605 µM (active) | 0.246 µM (active) | – |
| CCN(CC)CCCN1CCc2c([nH]c3ccccc23)C1c1cccnc1 (centres undefined) | > 100 µM (inactive) | 88.3 µM (inactive) | 96.8 µM (inactive) | > 100 | > 100 µM (inactive) | > 100 µM (inactive) | > 100 µM (inactive) | – | 61.2 µM (inactive) | 38.4 µM (inactive) | > 100 µM (inactive) | > 100 µM (inactive) | > 100 µM (inactive) | 42.8 µM (inactive) | – | > 100 µM (inactive) | 83.9 µM (inactive) | > 100 µM (inactive) | > 100 µM (inactive) | – |
| CN(C)CCC(/C=C/c1ccccc1)=N\Nc1ccccc1 | 0.667 µM (active) | 2.33 µM (inactive) | 4.32 µM (inactive) | 0.336 | 2.59 µM (inactive) | 2.97 µM (inactive) | 5.83 µM (inactive) | – | 2.72 µM (inactive) | 1.8 µM (inactive) | 2.74 µM (inactive) | 0.847 µM (active) | 1.41 µM (inactive) | 2.42 µM (inactive) | – | 3.97 µM (inactive) | 1.4 µM (inactive) | 3.56 µM (inactive) | 1.82 µM (inactive) | – |
| COc1ccccc1/C=C1\CCC(CNc2ccc(Cl)cc2)C1=O (centres undefined) | 2.86 µM (inactive) | 10.2 µM (inactive) | 14.7 µM (inactive) | 1.41 | 7.76 µM (inactive) | 2.2 µM (inactive) | 16.3 µM (inactive) | – | 0.242 µM (active) | 13.2 µM (inactive) | 13.7 µM (inactive) | 1.1 µM (active) | 1.43 µM (inactive) | 13.8 µM (inactive) | – | 5.14 µM (inactive) | 3.18 µM (inactive) | 1.73 µM (inactive) | 5.82 µM (inactive) | – |
| COC(=O)C(CC1=C(O)Nc2ccccc2N1)/C(=N/NC(N)=O)C(=O)Nc1ccccc1C (centres undefined) | > 100 µM (inactive) | > 100 µM (inactive) | > 100 µM (inactive) | 16.6 | > 100 µM (inactive) | 66.5 µM (inactive) | 38.5 µM (inactive) | – | > 100 µM (inactive) | 34.7 µM (inactive) | > 100 µM (inactive) | > 100 µM (inactive) | 28.8 µM (inactive) | > 100 µM (inactive) | – | > 100 µM (inactive) | > 100 µM (inactive) | > 100 µM (inactive) | > 100 µM (inactive) | – |
| N#Cc1c([N+](=O)[O-])cc(C(F)(F)F)cc1[N+](=O)[O-] | 2.08 µM (inactive) | 16.7 µM (inactive) | 2.11 µM (inactive) | 8.89 | 18.4 µM (inactive) | 2.96 µM (inactive) | 2.44 µM (inactive) | – | 4.85 µM (inactive) | 8.73 µM (inactive) | 14.1 µM (inactive) | 5.25 µM (inactive) | 19.7 µM (inactive) | 6.7 µM (inactive) | – | 7.94 µM (inactive) | 19.2 µM (inactive) | 19.1 µM (inactive) | 5.94 µM (inactive) | – |
| O=C1CCC2(c3ccccc3)Nc3ncccc3N12 (centres undefined) | > 100 µM (inactive) | > 100 µM (inactive) | > 100 µM (inactive) | > 100 | > 100 µM (inactive) | > 100 µM (inactive) | > 100 µM (inactive) | – | > 100 µM (inactive) | > 100 µM (inactive) | > 100 µM (inactive) | > 100 µM (inactive) | > 100 µM (inactive) | > 100 µM (inactive) | – | > 100 µM (inactive) | > 100 µM (inactive) | > 100 µM (inactive) | > 100 µM (inactive) | – |
| COc1ccc(CC2C3=C(CCCC3)CCN2C)cc1 (centres undefined) | > 100 µM (inactive) | > 100 µM (inactive) | > 100 µM (inactive) | > 100 | > 100 µM (inactive) | 65.8 µM (inactive) | > 100 µM (inactive) | > 100 µM (inactive) | 44.4 µM (inactive) | > 100 µM (inactive) | > 100 µM (inactive) | > 100 µM (inactive) | > 100 µM (inactive) | > 100 µM (inactive) | – | > 100 µM (inactive) | 58.3 µM (inactive) | > 100 µM (inactive) | > 100 µM (inactive) | > 100 µM (inactive) |
